Assay results taken from the supplement of paper PMC10331698.
± gives the standard deviation of the averaged measurements.

Experiments:
Assay in all cases: level (log10 ratio to DMSO vehicle control); higher = higher biomarker level / cell amount than vehicle control
Conditions in all cases: in DMSO
[1] = compound: COC(=O)CCC(F)(F)C(F)(F)C(F)(F)C(F)(F)F [Methyl 2H,2H,3H,3H-perfluoroheptanoate]
Protocol: (§1)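 BioMAP Diversity Plus panel of 12 human primary cell co-culture systems (3C, 4H, LPS, SAg, BT, BF4T, BE3C, CASM3C, HDF3CGF, KF3CT, MyoF, Mphg). Compounds were added 1 h before stimulation and left for 24 h (MyoF 48 h; BT 72 h for soluble read-outs or 6 d for IgG). Biomarkers were read by ELISA, cytotoxicity by SRB, PBMC viability and proliferation by Alamar Blue. Each well value was divided by the mean of 8 DMSO control wells on the same plate and log10 transformed; duplicate blinded samples were tested at 4 concentrations.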

[2] = compound: FC(F)(F)C(F)(C(F)(F)F)C(F)(F)C(F)(F)CC1CO1 [3-(Perfluoro-3-methylbutyl)-1,2-propenoxide]
Protocol: as §1

[3] = compound: FC(F)(F)C(F)(F)C(F)(F)C(F)(F)C(F)(F)C(F)(F)I [Perfluoro-1-iodohexane]
Protocol: as §1

[4] = compound: FC(F)(F)C(F)(F)C(F)(F)C(F)(F)C(F)(F)CCI [1-Iodo-1H,1H,2H,2H-perfluoroheptane]
Protocol: as §1

[5] = compound: NCC(F)(F)C(F)(F)C(F)(F)C(F)(F)C(F)(F)C(F)(F)C(F)(F)F [1H,1H-Perfluorooctylamine]
Protocol: as §1

[6] = compound: O=C(O)C(F)(F)C(F)(F)C(F)(F)C(F)(F)C(F)(F)C(F)(F)F [Perfluoroheptanoic acid]
Protocol: as §1

[7] = compound: O=C(O)C(F)(F)C(F)(F)F [Perfluoropropanoic acid]
Protocol: as §1

Test System	level (log10) ([1]; 6700 nM)	level (log10) ([1]; 20000 nM)	level (log10) ([1]; 60000 nM)	level (log10) ([2]; 6700 nM)	level (log10) ([2]; 20000 nM)	level (log10) ([3]; 6700 nM)	level (log10) ([3]; 20000 nM)	level (log10) ([3]; 60000 nM)	level (log10) ([4]; 6700 nM)	level (log10) ([4]; 20000 nM)	level (log10) ([4]; 60000 nM)	level (log10) ([5]; 6700 nM)	level (log10) ([5]; 20000 nM)	level (log10) ([5]; 60000 nM)	level (log10) ([6]; 6700 nM)	level (log10) ([6]; 20000 nM)	level (log10) ([6]; 60000 nM)	level (log10) ([7]; 6700 nM)	level (log10) ([7]; 20000 nM)	level (log10) ([7]; 60000 nM)
CASM3C:CXCL9/MIG	-0.006 ± 0.0085	0.0035 ± 0.0035	0.015 ± 0.0028	-0.015 ± 0.014	-0.001 ± 0.017	-0.0015 ± 0.0064	0.002 ± 0.0028	-0.0025 ± 0.036	-0.007 ± 0.0042	-0.0025 ± 0.0021	0.008 ± 0.011	-0.014 ± 0.021	-0.0245 ± 0.0021	0.006 ± 0.04	0.006 ± 0.023	0.015 ± 0.016	0.054 ± 0.051	0.0125 ± 0.015	0.0125 ± 0.012	0.0255 ± 0.037
KF3CT:CCL2/MCP-1	-0.0185 ± 0.035	-0.0515 ± 0.026	0.013 ± 0.048	-0.004 ± 0.03	0.022 ± 0.04	0.0225 ± 0.032	-0.015 ± 0.0014	-0.0185 ± 0.047	0.0005 ± 0.015	-0.034 ± 0.028	-0.0465 ± 0.064	-0.0055 ± 0.043	-0.021 ± 0.013	0.0045 ± 0.0078	0.0165 ± 0.021	0.033 ± 0.024	0.0255 ± 0.053	-0.0395 ± 0.0078	-0.018 ± 0.028	0.0055 ± 0.06
MyoF:PAI-I	-0.003	0.0055 ± 0.0078	0.003 ± 0.014	-0.0015 ± 0.013	-0.0035 ± 0.015	-0.001 ± 0.0028	-0.025 ± 0.0057	-0.12 ± 0.054	-0.0005 ± 0.00071	0.0005 ± 0.00071	-0.002 ± 0.0042	0 ± 0.016	-0.002 ± 0.014	-0.005 ± 0.013	0 ± 0.016	-0.0215 ± 0.023	0.0025 ± 0.018	-0.0035 ± 0.013	-0.0165 ± 0.0035	-0.0035 ± 0.012
HDF3CGF:CXCL11/I-TAC	-0.002 ± 0.013	0.0215 ± 0.0021	-0.0055 ± 0.011	-0.0005 ± 0.079	-0.0275 ± 0.087	-0.0215 ± 0.011	-0.0305 ± 0.016	-0.183 ± 0.15	-0.0155 ± 0.00071	-0.027 ± 0.0042	-0.143 ± 0.042	-0.0135 ± 0.035	-0.021 ± 0.033	-0.046 ± 0.078	-0.0165 ± 0.013	0.003 ± 0.011	0.01 ± 0.016	-0.0325 ± 0.032	-0.018 ± 0.033	-0.0215 ± 0.057
3C:CD142/Tissue Factor	-0.0115 ± 0.066	-0.038 ± 0.021	-0.0005 ± 0.026	-0.0095 ± 0.044	-0.0125 ± 0.047	0.0025 ± 0.032	0.0005 ± 0.013	0.0185 ± 0.022	0.003 ± 0.016	0.0155 ± 0.00071	0.0295 ± 0.00071	-0.0275 ± 0.00071	-0.0105 ± 0.00071	-0.0255 ± 0.011	-0.0065 ± 0.037	-0.004 ± 0.027	0.0285 ± 0.039	-0.008 ± 0.018	-0.015 ± 0.0085	0.0065 ± 0.0035
lMphg:CXCL8/IL-8	-0.0045 ± 0.018	-0.0025 ± 0.0064	-0.0005 ± 0.018	0.0165 ± 0.035	0.052 ± 0.023	-0.0075 ± 0.039	0.0325 ± 0.016	0.0585 ± 0.064	0.005 ± 0.0057	-0.01 ± 0.0099	0.0495 ± 0.025	0.008 ± 0.031	0.018 ± 0.025	0.01 ± 0.013	-0.0125 ± 0.0035	0.032 ± 0.0042	0.18 ± 0.035	0.0055 ± 0.0078	0.017 ± 0.018	0.0175 ± 0.043
MyoF:Collagen I	0.0055 ± 0.016	0.0035 ± 0.011	-0.004 ± 0.021	0 ± 0.0099	-0.017 ± 0.017	-0.0295 ± 0.019	-0.062 ± 0.04	-0.246 ± 0.094	-0.0065 ± 0.012	0.007 ± 0.0042	0.0375 ± 0.0035	0.012 ± 0.014	-0.016 ± 0.0042	0.013 ± 0.021	-0.0225 ± 0.011	-0.006	0.0055 ± 0.043	-0.0205 ± 0.011	-0.0075 ± 0.026	0.0255 ± 0.047
MyoF:MMP-1	-0.009 ± 0.0071	-0.019 ± 0.011	0.0305 ± 0.12	-0.007 ± 0.0085	-0.014 ± 0.0057	0.036 ± 0.0071	0.451 ± 0.19	0.661 ± 0.0028	-0.013 ± 0.038	-0.0185 ± 0.037	0.037 ± 0.011	-0.0095 ± 0.016	-0.0395 ± 0.012	-0.0055 ± 0.025	-0.0175 ± 0.0064	-0.0245 ± 0.011	0.021 ± 0.061	-0.0675 ± 0.11	-0.0565 ± 0.06	0.05 ± 0.095
HDF3CGF:MMP-1	0 ± 0.011	-0.003 ± 0.018	-0.004 ± 0.025	0.0095 ± 0.012	-0.008 ± 0.024	0.0065 ± 0.0035	-0.0075 ± 0.029	-0.034 ± 0.017	0.0565 ± 0.013	0.078 ± 0.0085	0.089 ± 0.037	-0.012 ± 0.0014	0.0015 ± 0.0035	0.013 ± 0.0014	-0.0105 ± 0.012	0.0025 ± 0.00071	0.0065 ± 0.005	-0.0065 ± 0.0064	0.0045 ± 0.013	0.0035 ± 0.015
lMphg:SRB-Mphg	-0.0285 ± 0.012	-0.022 ± 0.095	0.04 ± 0.057	0.0005 ± 0.0092	0.0075 ± 0.0021	0.002 ± 0.0057	-0.006 ± 0.0028	0.0025 ± 0.029	0.004 ± 0.0028	-0.0015 ± 0.0035	0.009 ± 0.013	-0.0055 ± 0.005	-0.007 ± 0.0042	0.0055 ± 0.032	-0.003 ± 0.014	0.005 ± 0.0071	0.004 ± 0.0042	-0.0375 ± 0.035	-0.096 ± 0.057	-0.0265 ± 0.1
BE3C:PAI-I	-0.0065 ± 0.025	-0.006 ± 0.044	-0.0055 ± 0.005	-0.0175 ± 0.0035	-0.0075 ± 0.013	-0.0245 ± 0.04	-0.0045 ± 0.025	0.006 ± 0.037	-0.025 ± 0.061	-0.0105 ± 0.056	0.008 ± 0.1	-0.0075 ± 0.028	-0.008 ± 0.014	-0.002 ± 0.04	0.007 ± 0.0028	0.027 ± 0.0057	0.042 ± 0.021	-0.029 ± 0.045	-0.0065 ± 0.057	0.017 ± 0.052
HDF3CGF:Collagen I	0.0615 ± 0.071	0.0465 ± 0.016	0.051 ± 0.041	0.003 ± 0.078	-0.0135 ± 0.15	-0.0285 ± 0.026	-0.0365 ± 0.0092	-0.045 ± 0.0071	0.003 ± 0.017	0.0055 ± 0.005	-0.093 ± 0.061	-0.047	-0.0275 ± 0.0078	0.028 ± 0.081	-0.036 ± 0.045	-0.009 ± 0.024	0.0395 ± 0.061	0 ± 0.038	-0.031 ± 0.1	0.0375 ± 0.012
